Data from US9682043B2, “Method of preparation of mixed phase co-crystals with active agents” (MedCrystalForms, LLC, priority 2003, dated 2017).

Assay: Intrinsic dissolution of itraconazole mixed phase co-crystals
Format: physicochemical
Conditions: 3% sodium lauryl sulfate 20% isopropanol:0.1 N HCl (1:1)
Source text: FIG. 5 is a graph showing the intrinsic dissolution rate of itraconazole mixed phase co-crystals in a 3% sodium lauryl sulfate 20% isopropanol:0.1 N HCl (1:1) media.

Intrinsic Dissolution Rate: 11.1 mcg/min/cm^2
Substance: Itraconazole [Control (Intact API)]
